The source of these data is patent publication US7361662B2, “Pyridopyrimidinone compounds, method for production thereof and medicaments comprising the same” (Les Laboratoires Servier, priority 2002, dated 2008).

The test has as its system obese ob/ob mouse (model of obesity-associated insulin resistance). The test can be described thus: Hypolipaemic activity in the obese ob/ob mouse. In kind it is in vivo. As to the method: The products of the invention were tested in vivo in the obese ob/ob mouse, used as a model of obesity-associated insulin resistance.

As for `CCCN(CCC)c1nc2c(N3CCCCCC3)nc(N3CCOCC3)cc2c(=O)[nH]1` [Example 6, 8-(1-Azepanyl)-2-(dipropylamino)-6-(4-morpholinyl)pyrido[3,4-d]pyrimidin-4(3H)-one], for the setting “125 mg/kg per os”, the reduction of triglycerides result is “significantly reduces the triglycerides”.
In the case of `CN(C)C(=N)N=C(N)N` [metformin], the reduction of triglycerides result (250 mg/kg per os) is given as “the same reduction is obtained”.
